From patent publication US8853234B2, “Quinolone analogs and methods related thereto” (Senhwa Biosciences, Inc., priority 2007, dated 2014)
Read-outs that look alike come from different tables or passages of the source.

Assays:
[1] = Cassette dosing oral pharmacokinetics in ICR mice; format: in vivo; settings: ICR (IcrTac:ICR), mouse; cassette oral dose 25 mg/kg, female ICR mice, plasma, 0-8 h, none in table
Protocol: A cassette dosing procedure was utilized to determine pharmaceutical properties of compounds disclosed herein. In this procedure, compounds are selected for each cassette (i.e., cocktail) on the basis that mass spectrometric signals for each compound will not interfere with one another upon mass spectrometric analysis (e.g., will not overlap). The concentration of each compound in the dosing cassette often is about 20 mg/mL to achieve an oral dose level of 25 mg/kg in ICR mice. Aspects of the cassette dosing procedure are described hereafter.
Prepare 0.5 mL of 20 mg/mL dosing solution (in PBS or formulation vehicle) of 12 test compounds. Dilute a dosing solution 20 fold by transferring 10 μL of the stock solution into 190 μL acetonitrile containing 0.1% formic acid to achieve a final concentration of 1 mg/mL. Dilute further a 1 mg/mL solution 1,000 fold by transferring 1 μL of the stock solution into 999 μL acetonitrile containing 0.1% formic acid to achieve a final concentration of 1 μg/mL. Use the 1 μg/mL solution for mass spectrometric method development based on direct infusion. Determine parent/daughter mass spectra of each compound using multiple reaction monitoring (MRM). Compare parent/daughter mass spectra of each compound to assure no cross-reaction interference during LC-MS/MS measurements. Based on MRM mass spectra determine the composition of all cassettes.
Mix 250 μL of four prepared dosing solutions and an oral PK internal standard (20 mg/mL each) according to cassette design to achieve a final concentration of 4 mg/mL. Vortex cassettes rigorously and ultra-sonicate to obtain a clear solution or homogeneous suspension. Use the cassette solutions to dose animals by oral route of administration at 25 mg/kg.
All in vivo experiments follow protocols approved by the Animal Use and Care Committee. Female ICR mice (IcrTac:ICR), 8-10 weeks of age are obtained from Taconic (Hudson, N.Y.). Mice are housed on a 12 h/12 h light/dark cycle with ad libitum access to water and food. After a minimum two week acclimation period, the mice are randomized into groups with a minimum group size of four. The animals used for pharmacokinetic studies have a body-weight range of 25-35 g. A 25 mg/kg (4 mg/ml) dose of a cassette described in Example 1 is orally administered to mice that have been fasted overnight.
After compound administration, serial blood samples are collected via retro-orbital puncture with a capillary tube at various time points (15, 30 minutes and 1, 2, 4, 6 and 8 hours). The samples are transferred to a heparinized 0.5 mL microcentrifuge tube and placed on ice. Plasma is separated by centrifugation and samples are stored at −80° C. until assay.
Dilute a cassette dosing solution (4 mg/mL) four fold by transferring 25 μL of the stock solution into 75 μL of 50% acetonitrile containing 0.1% formic acid to achieve the concentration of 1 mg/mL. Dilute this stock solution further by serial dilutions to make 0.01, 0.1, 1 and 5 μg/mL working standard solutions.
Prepare 500 mL of 0.5 μg/mL solution of bioanalytical internal standard using 100% acetonitrile with 0.1% formic acid. Store the quenching solution in a tightly sealed bottle at 4° C.
Transfer 15 μL of blank mouse plasma to a 96 well plate and precipitate plasma proteins by pipetting of 120 μL of quenching solution to all plasma aliquots. Cover the plate with a matching plate mat and mix well for 30-60 seconds using a vertical multi-tube shaker.
Add 15 μL of the working standard solution of corresponding cassette to quenched plasma and vortex the plate for an additional 30-60 seconds. Then, centrifuge the plate at 4,000 rpm for 10 minutes at 4° C. Without disturbing the plasma protein pellet, transfer 120 μL of the supernatant to a new 96 well plate and dry the sample under nitrogen using a TurboVap® plate evaporator (Caliper Life Sciences; Hopkinton, Mass.). Reconstitute dried residues with 120 μL 20% acetonitrile containing 0.1% formic acid. […]

[2] = test system: rDNA; experiment: Quantitative PCR (QPCR) assay, rRNA inhibition (rDNA); format: cell-based; design: Selectivity: reference not given here; settings: for Selectivity: not defined in the patent; for IC50: rRNA inhibition from quantitative PCR assay
From the text: In a specific assay embodiment, provided herein is a method for identifying a molecule that modulates ribosomal RNA (rRNA) synthesis, which comprises: contacting cells with a test molecule of Formula (I), (II), (III), (IV), (V), (VI), (VI′), (VII), or (VIII), contacting a ribosomal nucleotide sequence with one or more primers that amplify a portion thereof and a labeled probe that hybridizes to the amplification product, and detecting the amount of the amplification product by hybridization of the labeled probe, whereby a test molecule that reduces or increases the amount of amplification product is identified as a molecule that modulates rRNA synthesis. The labeled probe in some embodiments is added after the primers are added and the rRNA is amplified, and in certain embodiments, the labeled probe and the primers are added at the same time. The portion of ribosomal nucleotide sequence amplified sometimes is at the 5′ end of rDNA.
Real-time quantitative PCR (QPCR) method may be used to detect the changes of the target c-myc and the endogenous reference GAPDH gene copies in the same tube. Generally, cells (15,000 cells/well) are seeded on 96 well flat bottom plates (Corning, N.Y.) and incubated under normal growth conditions for overnight. The next day, the culture medium is exchanged for that containing anticancer drugs at various concentrations and incubated for 4 hrs in a humidified atmosphere of 5% CO2 at 37° C. Total RNA (tRNA) is extracted using the RNeasy 96 Kit (QIAGEN, CA). The concentration of the tRNA is determined by the RiboGreen RNA Quantitation Reagent (Molecular Probes, OR).
A reverse-transcription (RT) reaction may be conducted using 50 ng of tRNA from each well in a 25 μl reaction containing 1× TaqMan RT buffer, 2.5 uM random hexamers, 5.5 mM MgCl2, 0.5 mM each deoxynucleoside triphosphate (dNTP), 30 U MultiScribe Reverse Transcriptase, and 10 U RNase inhibitor. RT reactions are incubated for 10 min at 25° C., reverse-transcribed for 30 min at 48° C., inactivated for 5 min at 95° C., and placed at 4° C. All RT reagents may be purchased from Applied Biosystems, CA.
Real-Time QPCR reaction may be performed in a 50 μl reaction containing the 5 μl of cDNA, 1× Universal PCR Master Mix, 1× c-myc Pre-Developed Primers and Probe set, and 0.8×GAPDH Pre-Developed Primers and Probe set. Because of the relative abundance of GAPDH gene in Hela, GAPDH primers and probe concentration may be adjusted to get accurate threshold cycles (CT) for both genes in the same tube. The threshold cycle (CT) indicates the fractional cycle number at which the amount of amplified target reaches a fixed threshold. By doing so, the GAPDH amplification is stopped before it can limit the common reactants available for amplification of the c-myc. The ΔRn value represents the normalized reporter signal minus the baseline signal. ΔRn increases during PCR as amplicon copy number increases until the reaction approaches a plateau.
The c-myc probe is labeled with 6FAM™ dye-MGB and the GAPDH probe is labeled with VIC™ dye-MTB. Preincubation is performed for 2 min at 50° C. to activate AmpErase UNG enzyme and then for 10 min at 95° C. to activate AmpliTaq DNA Polymerase. DNA is amplified for 40 cycles of 15 sec at 95° C. and 1 min at 60° C. Human c-myc and GAPDH cDNA are amplified, detected, and quantitated in real time using the ABI Prism 7000 Sequence Detection system (Applied Biosystems, CA), which is set to detect both 6-FAM and VIC reporter dyes simultaneously.
The data may be analyzed using the ABI PRISM Sequence Detection System and Microsoft Excel. Relative quantitation is done using the standard curve and comparative CT method at the same time, and both methods gave equivalent results. The cycle at which the amplification plot crosses the CT is known to accurately reflect relative mRNA values. (See, Heid, et al., Genome Res. (1996) 6:986-994; Gibson, et al., Genome Res. (1996) 6:995-1001). […]

[3] = test system: a variety of cell types that are representative of different cancers; experiment: Alamar Blue cell viability assay, variety of cell types representative of different cancers (Tables 12-14); format: cell-based; settings: Homo sapiens
Protocol: A representative cell-proliferation assay protocol using Alamar Blue dye (stored at 4° C., use 20 ul per well) is described hereafter.
96-Well Plate Setup and Compound Treatment
a. Split and trypsinize cells.
b. Count cells using hemocytometer.
c. Plate 4,000-5,000 cells per well in 100 μl of medium and seed into a 96-well plate according to the following plate layout. Add cell culture medium only to wells B10 to B12. Wells B1 to B9 have cells but no compound added.
d. Add 100 μl of 2× drug dilution to each well in a concentration shown in the plate layout above. At the same time, add 100 μl of media into the control wells (wells B10 to B12). Total volume is 200 μl/well.
e. Incubate four (4) days at 37° C., 5% CO2 in a humidified incubator.
f. Add 20 μl Alamar Blue reagent to each well.
g. Incubate for four (4) hours at 37° C., 5% CO2 in a humidified incubator.
h. Record fluorescence at an excitation wavelength of 544 nm and emission wavelength of 590 nm using a microplate reader.
In the assays, cells are cultured with a test compound for approximately four days, the dye then is added to the cells and fluorescence of […] dye is detected after approximately four hours. Different types of cells can be utilized in the assays (e.g., HCT-116 human colorectal carcinoma cells, PC-3 human prostatic cancer cells and MiaPaca human pancreatic carcinoma cells). Anti-proliferative effects of representative compounds are provided hereafter.
(§1) Inhibitory activity on cell proliferation of Compounds A1, A2 and A3 was determined using an Alamar Blue cell viability assay (e.g., Example 39 herein) using a variety of cell types that are representative of different cancers Inhibition values (IC50) are presented in micromolar concentrations in the following table (Table 12).
as §1, with “representative compounds of the invention” for “Compounds A1, A2 and A3”, “Table 13 and Table 14.” for “the following table (Table 12).”

[4] = HCT-116, HCT-116 cells, Table 13, read-out: AB: HCT-116 (IC50)
[5] = K562, K-562 cells, Table 13, read-out: AB: K-562 (IC50)
[6] = MV4-11, MV-4-11 cells, Table 13, read-out: AB: MV-4-11 (IC50)
[7] = PC-3, PC3 cells, Table 13, read-out: AB: PC3 (IC50)
[8] = K562, K-562 cells, Table 14, read-out: AB: K-562 (IC50)
[9] = MIA PaCa-2, MiaPaCa cells, Table 14, read-out: AB: MiaPaCa (IC50)
[10] = MV4-11, MV-4-11 cells, Table 14, read-out: AB: MV-4-11 (IC50)
[11] = PC-3, PC3 cells, Table 14, read-out: AB: PC3 (IC50)
[12] = THP-1, THP-1 cells, Table 14, read-out: AB: THP-1 (IC50)

SMILES	IC50 [3, 4] [nM]	IC50 [3, 7] [nM]	IC50 [3, 8] [nM]	IC50 [3, 9] [nM]	IC50 [3, 10] [nM]	IC50 [3, 11] [nM]	IC50 [3, 12] [nM]	other results
CN1CCN(NC(=O)c2c(=O)c3cc(F)c(N4CCOCC4)nc3n3c2sc2ccccc23)CC1	–	–	–	–	–	–	–	AUC(0-t) [1]: 4360 ng·h/mL; Selectivity [2]: 89; IC50 [2]: 102 nM
O=C(NCc1ccccn1)c1c(=O)c2cc(F)c(N3CCOCC3)nc2n2c1sc1ccccc12	–	–	–	–	–	–	–	AUC(0-t) [1]: 90600 ng·h/mL; Selectivity [2]: 1; IC50 [2]: 22600 nM
O=C(NC1CC1)c1c(=O)c2ccc(NCC(O)c3ccccc3)nc2n2c1sc1ccccc12 (stereo not shown)	> 10000	> 10000	–	–	–	–	–	IC50 [3, 5]: > 10000 nM; IC50 [3, 6]: > 10000 nM
COCCNC(=O)c1c(=O)c2ccc(NCC(O)c3ccccc3)nc2n2c1sc1ccccc12 (stereo not shown)	133	3740	–	–	–	–	–	–
CN1CCN(C(=O)c2c(=O)c3ccc(NCC(O)c4ccccc4)nc3n3c2sc2ccccc23)CC1 (stereo not shown)	2510	6670	–	–	–	–	–	IC50 [3, 5]: 3130 nM; IC50 [3, 6]: 543 nM
CN1CCCCC1CNC(=O)c1c(=O)c2ccc(NCC(O)c3ccccc3)nc2n2c1sc1ccccc12 (stereo not shown)	267	633	–	–	–	–	–	–
O=C(NCC1CC1)c1c(=O)c2ccc(NCC(O)c3ccccc3)nc2n2c1sc1ccccc12 (stereo not shown)	> 10000	6080	–	–	–	–	–	IC50 [3, 5]: > 10000 nM; IC50 [3, 6]: 5030 nM
CN1CCCN(c2nc3c(cc2F)c(=O)c(C(=O)NCc2ccccn2)c2sc4ccccc4n23)CC1	–	–	118	941	43	7770	1330	–
CN1CCCN(c2nc3c(cc2F)c(=O)c(C(=O)NCc2cccnc2)c2sc4ccccc4n23)CC1	–	–	32	133	< 30	2480	356	–
CN1CCCN(c2nc3c(cc2F)c(=O)c(C(=O)NCc2ccncc2)c2sc4ccccc4n23)CC1	–	–	95	131	< 30	6590	1060	–
CN1CCCN(c2nc3c(cc2F)c(=O)c(C(=O)N2CCOCC2)c2sc4ccccc4n23)CC1	–	–	110	352	< 30	1210	590	–
CN1CCCN(c2nc3c(cc2F)c(=O)c(C(=O)NN2CCOCC2)c2sc4ccccc4n23)CC1	–	–	267	359	124	1800	1320	–
CN1CCCN(c2nc3c(cc2F)c(=O)c(C(=O)NCCCO)c2sc4ccccc4n23)CC1	–	–	51	< 120	32	2640	571	–
Cc1cnc(CNC(=O)c2c(=O)c3ccc(N4CCCNCC4)nc3n3c2sc2ccccc23)cn1	–	–	101	637	84	–	–	–
